Experimental data published in patent publication US11214594B2, “Antimicrobial peptide having synergistic antibacterial effect with antibiotics on multidrug resistant bacteria, and use thereof” (priority 2016, dated 2022).
In brackets after ≈: the same amount, converted by molar mass. Where a SMILES comes first, the peptide text is derived from it. [ ]: non-standard residue; d: D form.

What was measured:
[1] = system: E. coli; test: microbe, parasite or virus in culture; format: cell-based, Escherichia coli; details: 16 h
Method in brief: (§1)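 Broth microdilution in MH medium: bacterial strains diluted to 2×10^6 CFU were mixed with equal volumes of peptide serially diluted twofold in MH medium.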

[2] = system: MDREC 1229; test: microbe, parasite or virus in culture; format: cell-based, Escherichia coli
Method in brief: as §1

[3] = system: P. aeruginosa; test: microbe, parasite or virus in culture; format: cell-based, Pseudomonas aeruginosa
Method in brief: as §1

[4] = system: MDRST 8009; format: cell-based, Salmonella typhimurium; details: agent alone
Method in brief: as §1

[5] = system: B. subtilis; test: microbe, parasite or virus in culture; format: cell-based, Bacillus subtilis
Method in brief: as §1

[6] = system: S. epidermidis; test: microbe, parasite or virus in culture; format: cell-based, Staphylococcus epidermidis
Method in brief: as §1

[7] = system: E. coli; test: MIC of antibiotic during combined treatment with antimicrobial peptide; format: cell-based, Escherichia coli; details: for Antibiotic MIC, Erythromycin / Antibiotic MIC, Linezolid / Antibiotic MIC, Vancomycin: E. coli
Method in brief: (§2)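 First, antibiotic solution is diluted with MH medium; next, the dilution is dispensed into wells containing peptide; finally, the orientation is swapped and MIC of each mixture determined.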

[8] = system: MDREC 1229; test: as above; format: cell-based, Escherichia coli
Method in brief: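 Broth microdilution in MH medium; strains were diluted to 2×10^6 CFU per ml before plating. Peptide was serially diluted stepwise at 2:1 starting from its MIC, and MH-diluted antibiotic was then added to determine MIC. The reversed arrangement was also tested.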

[9] = system: A. baumannii; test: as above; format: cell-based, Acinetobacter baumannii; details: A. baumannii; combined with peptide at 1 μg/ml
Method in brief: as §2

[10] = peptide treatment concentration 1 μg/ml
[11] = peptide treatment concentration 2 μg/ml
[12] = peptide treatment concentration 4 μg/ml
[13] = peptide treatment concentration 6 μg/ml
[14] = peptide treatment concentration 8 μg/ml
[15] = peptide treatment concentration 16 μg/ml
[16] = peptide treatment concentration 32 μg/ml
[17] = peptide treatment concentration 64 μg/ml

With `CC[C@H](C)[C@H](NC(=O)[C@H](CCCCN)NC(=O)[C@H](Cc1c[nH]c2ccccc12)NC(=O)[C@@H](N)CCCNC(=N)N)C(=O)N[C@@H](Cc1ccccc1)C(=O)N[C@@H](CCCCN)C(=O)N[C@@H](CCCCN)C(=O)N[C@H](C(=O)N[C@H](CCCCN)C(=O)N[C@@H](CCCCN)C(=O)N[C@@H](CC(C)C)C(=O)N[C@@H](CC(C)C)C(=O)N[C@@H](Cc1c[nH]cn1)C(=O)N[C@@H](CCCCN)C(=O)N[C@@H](C)C(=O)N[C@@H](CCCCN)C(=O)N[C@@H](CCCCN)C(=O)N[C@@H](Cc1c[nH]c2ccccc12)C(N)=O)[C@@H](C)CC` [PapMA-18, RWK IFK KIk KLL HKA KKW-NH2] (H-RWKIFKKI[dK]KLLHKAKKW-NH2; N-terminus assumed) the “Minimal inhibitory concentration MIC” value [1] was 64 µg/mL (≈ 26.9 µM), the “Minimal inhibitory concentration MIC” value [2] was 64 µg/mL (≈ 26.9 µM) and the “Peptide MIC, peptide alone” value [2] was 64 µg/mL. The “Minimal inhibitory concentration MIC” value [3] was 32 µg/mL (≈ 13.5 µM), the “Minimal inhibitory concentration MIC” value [4] was 64 µg/mL (≈ 26.9 µM) and the “Minimal inhibitory concentration MIC” value [5] was over 128 µg/mL. The “Minimal inhibitory concentration MIC” value [6] was over 128 µg/mL, the “Synergistic effect of antibacterial activity with existing antibiotics compared with PapMA-1” value ([7]; E. coli and MDREC1229) was “higher level than the PapMA-1 peptide” and the “Antibiotic MIC, Erythromycin” value ([7]; erythromycin combined with peptide at 1 μg/ml) was 128 µg/mL. For the same molecule, the “Antibiotic MIC, Erythromycin” value ([7]; erythromycin combined with peptide at 2 μg/ml) was 32 µg/mL, the “Antibiotic MIC, Erythromycin” value ([7]; erythromycin combined with peptide at 4 μg/ml) was 8 µg/mL and the “Antibiotic MIC, Erythromycin” value ([7]; erythromycin combined with peptide at 6 μg/ml) was 1 µg/mL. The “Antibiotic MIC, Erythromycin” value ([7]; erythromycin combined with peptide at 8 μg/ml) was 1 µg/mL, the “Antibiotic MIC, Erythromycin” value ([7]; erythromycin combined with peptide at 16 μg/ml) was 0.25 µg/mL and the “Antibiotic MIC, Erythromycin” value ([7]; erythromycin combined with peptide at 32 μg/ml) was 0.125 µg/mL. The “Antibiotic MIC, Erythromycin” value ([7]; erythromycin combined with peptide at 64 μg/ml) was 0 µg/mL, the “Antibiotic MIC, Linezolid” value ([7]; linezolid combined with peptide at 1 μg/ml) was over 128 µg/mL and the “Antibiotic MIC, Linezolid” value ([7]; linezolid combined with peptide at 2 μg/ml) was over 128 µg/mL. The “Antibiotic MIC, Linezolid” value ([7]; linezolid combined with peptide at 4 μg/ml) was 64 µg/mL, the “Antibiotic MIC, Linezolid” value ([7]; linezolid combined with peptide at 6 μg/ml) was 16 µg/mL and the “Antibiotic MIC, Linezolid” value ([7]; linezolid combined with peptide at 8 μg/ml) was 8 µg/mL. For the same molecule, the “Antibiotic MIC, Linezolid” value ([7]; linezolid combined with peptide at 16 μg/ml) was 8 µg/mL, the “Antibiotic MIC, Linezolid” value ([7]; linezolid combined with peptide at 32 μg/ml) was 4 µg/mL and the “Antibiotic MIC, Linezolid” value ([7]; linezolid combined with peptide at 64 μg/ml) was 0 µg/mL. For the same molecule, the “Antibiotic MIC, Vancomycin” value ([7]; vancomycin combined with peptide at 1 μg/ml) was over 128 µg/mL, the “Antibiotic MIC, Vancomycin” value ([7]; vancomycin combined with peptide at 2 μg/ml) was over 128 µg/mL and the “Antibiotic MIC, Vancomycin” value ([7]; vancomycin combined with peptide at 4 μg/ml) was over 128 µg/mL. The “Antibiotic MIC, Vancomycin” value ([7]; vancomycin combined with peptide at 6 μg/ml) was 32 µg/mL, the “Antibiotic MIC, Vancomycin” value ([7]; vancomycin combined with peptide at 8 μg/ml) was 16 µg/mL and the “Antibiotic MIC, Vancomycin” value ([7]; vancomycin combined with peptide at 16 μg/ml) was 8 µg/mL. For the same molecule, the “Antibiotic MIC, Vancomycin” value ([7]; vancomycin combined with peptide at 32 μg/ml) was 4 µg/mL, the “Antibiotic MIC, Vancomycin” value ([7]; vancomycin combined with peptide at 64 μg/ml) was 0 µg/mL and the “Antibiotic MIC, Erythromycin” value [8, 10] was over 128 µg/mL. The “Antibiotic MIC, Linezolid” value [8, 10] was over 128 µg/mL, the “Antibiotic MIC, Vancomycin” value [8, 10] was over 128 µg/mL and the “Antibiotic MIC, Erythromycin” value [8, 11] was 32 µg/mL. The “Antibiotic MIC, Linezolid” value [8, 11] was over 128 µg/mL, the “Antibiotic MIC, Vancomycin” value [8, 11] was over 128 µg/mL and the “Antibiotic MIC, Erythromycin” value [8, 12] was 16 µg/mL. For the same molecule, the “Antibiotic MIC, Linezolid” value [8, 12] was 64 µg/mL, the “Antibiotic MIC, Vancomycin” value [8, 12] was over 128 µg/mL and the “Antibiotic MIC, Erythromycin” value [8, 13] was 4 µg/mL. For the same molecule, the “Antibiotic MIC, Linezolid” value [8, 13] was 32 µg/mL, the “Antibiotic MIC, Vancomycin” value [8, 13] was 32 µg/mL and the “Antibiotic MIC, Erythromycin” value [8, 14] was 2 µg/mL. For the same molecule, the “Antibiotic MIC, Linezolid” value [8, 14] was 16 µg/mL, the “Antibiotic MIC, Vancomycin” value [8, 14] was 16 µg/mL and the “Antibiotic MIC, Erythromycin” value [8, 15] was 1 µg/mL. For the same molecule, the “Antibiotic MIC, Linezolid” value [8, 15] was 8 µg/mL, the “Antibiotic MIC, Vancomycin” value [8, 15] was 8 µg/mL and the “Antibiotic MIC, Erythromycin” value [8, 16] was 0.5 µg/mL. For the same molecule, the “Antibiotic MIC, Linezolid” value [8, 16] was 4 µg/mL, the “Antibiotic MIC, Vancomycin” value [8, 16] was 4 µg/mL and the “Antibiotic MIC, Erythromycin” value [8, 17] was 0 µg/mL. For the same molecule, the “Antibiotic MIC, Linezolid” value [8, 17] was 0 µg/mL, the “Antibiotic MIC, Vancomycin” value [8, 17] was 0 µg/mL and the “Antibiotic MIC, Erythromycin” value [9] was 32 µg/mL. For the same molecule, the “Antibiotic MIC, Linezolid” value [9] was over 128 µg/mL and the “Antibiotic MIC, Vancomycin” value [9] was over 128 µg/mL.
